This note sets out measurements from patent US20250207103A1, “CYTOCOMPATIBLE HYDROGELS AND METHODS OF MAKING AND USING THE SAME” (The Trustees of Indiana University, priority 2022, published 2025).

For experiment [1], the system named is CAFs. The experiment can be described thus: effect of blebbistatin and Y-27632 on spreading of CAFs in viscoelastic hydrogels. It is filed as cell-based, human. As to conditions: Y-27632: 10 μM; for F-actin polymerization in CAFs: blebbistatin: 40 μM, Day 15. The source says: (§1) To facilitate imaging, pancreatic cancer cells COLO-357 were stably transduced with mKate2, a red fluorescent protein (RFP), using INCUCYTE® Cytolight Lentivirus reagent, followed by puromycin selection. green fluorescent protein (GFP)-labelled human pancreatic cancer associated fibroblasts (1303-GFP-49-hT, or CAF) and RFP-labelled COLO-357 (PCC) were maintained in high glucose Dulbecco's modified eagle medium (DMEM, Gibco) containing 10% Fetal bovine serum (FBS, Corning) and 1% antibiotic-antimycotic (Gibco) at 37° C. with 5% CO2. Cells were trypsinized by 0.1% trypsin-ethylenediaminetetraacetic acid (trypsin-EDTA) (Gibco) for cell encapsulation. The cell density of CAF and PCC was kept at 1.6 million/mL (M/mL) and 400 thousand/mL (k/mL), respectively, in both single-encapsulated and co-encapsulated precursor solutions. The hydrogel precursor solution was similar to the aforementioned formulations, except that 3 wt % of GelSH was included to facilitate cell proliferation. Twenty-five μL precursor solution was cured under UV light (λ=365 nm, 5 mW/cm^2) in an opened 1 mL syringe for 2 minutes. The cell-laden hydrogels were then cultured in regular cell culture media. For hydrogels treated with myosin inhibitor blebbistatin (40 μM, Peprotech) and ROCK inhibitor Y-27632 (10 μM, AdipoGen), the treated culture media was replaced daily to ensure the efficacy of inhibitors.
The cell viability of CAF in hydrogels was evaluated by staining with ethidium homodimer 3. The morphology of CAF in hydrogels was analyzed using F-actin (rhodamine phalloidin 100 nM, Cytoskeleton) and 4′,6-diamidino-2-phenylindole (DAPI) (1:1000, Anaspec) stained images. In the co-encapsulated hydrogels, cells were stained using F-actin (Actin stain 670 phalloidin 200 nM, Cytoskeleton) and DAPI (1:1000). The confocal images (Olympus Fluoview FV100 laser scanning microscope) were z-stacked from 5 μm slices over 100 μm in total.

Experiment [2] has as its system PCCs/CAFs. As to the kind of experiment: effect of blebbistatin and Y-27632 on PCCs/CAFs encapsulated in viscoelastic hydrogels. Type of experiment: cell-based, human. As to conditions: blebbistatin: 40 μM, Y-27632: 10 μM, Day 15.
From the text: as §1, with “The cell-laden hydrogels were then cultured in regular cell culture media. For hydrogels treated with myosin inhibitor blebbistatin (40 μM, Peprotech) and ROCK inhibitor Y-27632 (10 μM, AdipoGen), the treated culture media was replaced daily to ensure the efficacy of inhibitors.” left out
The cell viability of CAF in hydrogels was evaluated by staining with ethidium homodimer 3. The morphology of CAF in hydrogels was analyzed using F-actin (rhodamine phalloidin 100 nM, Cytoskeleton) and 4′,6-diamidino-2-phenylindole (DAPI) (1:1000, Anaspec) stained images. […]

Regarding `C[C@@H](N)[C@H]1CC[C@H](C(=O)Nc2ccncc2)CC1` [Y-27632], in experiment [1], the “cell morphology of CAFs” value is “more obvious dendritic extensions of cells” and the “F-actin polymerization in CAFs” value is “disrupted F-actin polymerization”. The “invasive phenotype of PCC cells in co-culture” value in experiment [2] is “neither the addition of blebbistatin nor Y-27632 altered invasive phenotype”.

Regarding `Cc1ccc2c(c1)C(=O)C1(O)CCN(c3ccccc3)C1=N2` (centres unmarked) [blebbistatin], the “F-actin polymerization in CAFs” value in experiment [1] is “disrupted F-actin polymerization”. For the same compound, the “invasive phenotype of PCC cells in co-culture” value in experiment [2] is “neither the addition of blebbistatin nor Y-27632 altered invasive phenotype”.
